Results filed as inconclusive are left out. Active and inactive are the calls of the source.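 How the source made its calls: active means luciferase signal rise whose fitted curve crosses a set activity limit at or below the top valid tested dose; inconclusive means flat fit with 30 to 70% rise, or poor fit; inactive means signal falling, flat within 30%, or crossing above top dose.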
Tested on: D54 LucT luciferase reporter counterscreen, luminescence, 24 h
Assay: reporter signal increase, D54 LucT cells – cell-based, luminescence, cherry pick, counter-screen for N-linked glycosylation inhibitor project, dose response (AID 624404)

| Compound | AC35 |
| --- | --- |
| COc1ccc(S(=O)(=O)NCc2ccccn2)cc1NC(=O)c1ccccc1C | 3.11 µM |
| O=C1NC(=O)N(Cc2ccccc2)C(=O)/C1=C/C=C/c1ccco1 | 5.28 µM |
| COc1cccc(-c2nn(C)c3sc(C(=O)NCc4ccco4)cc23)c1 | 3.35 µM |
| CC(Nc1nc(-c2cccnc2)nc2ccccc12)c1ccccc1 (centres undefined) | 1.05 µM |
| Cc1cc(=O)oc2cc(OCC3CC(c4ccccc4)=NO3)ccc12 (centres undefined) | 1.54 µM |
| Cc1ccc2c(c1)C(=O)N1[C@H]3c4cc(Br)ccc4OC[C@@H]3[C@H](c3ccccc3)[C@]1(C)C(=O)N2 | 0.241 µM |
| CC1CN(C(=O)c2ccc(COc3ccc(C(C)C)cc3)o2)CC(C)O1 (centres undefined) | < 0.0012 µM |
| OCCCN=c1cc(-c2ccccc2)oc2ccc(Cl)cc12 | 0.971 µM |
| O=C1NC[C@H](Cc2ccccc2)N(C[C@H]2CCCN2C[C@H](Cc2ccccc2)N2C[C@H](Cc3ccc(O)cc3)N(CCc3ccccc3)C(=O)C2=O)C1=O | 3.77 µM |
| Cn1c(=O)cc2c3c(c(N4CCCCC4)ccc31)C(=O)c1ccccc1-2 | 1.35 µM |
| COc1ccc2c(c1)[C@H]1[C@H](CO2)[C@H](c2ccccc2)[C@]2(C)C(=O)Nc3ccc(F)cc3C(=O)N12 | 0.582 µM |
| Cc1ccc(S(=O)(=O)Nc2ccc3c(c2)n(C)c(=O)n3C)cc1 | 0.694 µM |
| C[C@@]12C(=O)Nc3ccc(Br)cc3C(=O)N1[C@H]1c3ccccc3OC[C@@H]1[C@@H]2c1ccccc1 | 0.785 µM |
| Nc1cc2c(cc1Br)-c1c(C(=O)O)cccc1C2O (centres undefined) | 2.68 µM |
| Cc1ccc(-c2cc(C(=O)Nc3ccncc3)c3ccccc3n2)cc1 | 4.3 µM |
| Cc1c(Cl)cccc1Nc1nc(N)nc(CN2CCc3ccccc3C2)n1 | 0.614 µM |
| C[C@@]12C(=O)Nc3cc(F)c(F)cc3C(=O)N1[C@H]1c3cc(Cl)ccc3OC[C@@H]1[C@@H]2c1ccccc1 | 1.6 µM |
| COc1ccc(CNCC(=O)Nc2ccccc2-n2cccc2)cc1 | 0.0629 µM |
| COc1ccc(C(=O)/C=C/c2ccccc2)c(O)c1 | 0.404 µM |
| COc1ccc(S(=O)(=O)N2CCCCC2)cc1NC(=O)c1[nH]c(C)c(C(C)=O)c1C | 0.621 µM |
| Cc1cc(=O)oc2cc(NC(=O)c3cccc(S(C)(=O)=O)c3)ccc12 | 0.526 µM |
| COc1ccc(C(=O)Nc2sc(C)c(C)c2CN2CC(C)OC(C)C2)cc1 (centres undefined) | 0.352 µM |
| COc1ccc2c(c1)OC[C@H]1[C@H]2N2C(=O)c3cc(Cl)ccc3NC(=O)[C@@]2(C)[C@H]1c1ccccc1 | 0.996 µM |
| CCN(CC)c1ccc(C(=O)n2cnc3ccccc32)cc1 | 0.662 µM |
| NC1(C(=O)O)CSSC1 | 3.05 µM |
| C=C(C)Cn1c2ccc(NC(=O)CCc3cccc(Cl)c3)cc2c(=O)n1C | 4.26 µM |

| Compound | AC35 |
| --- | --- |
| O=C1Nc2ccccc2/C1=C/c1cnc[nH]1 | 0.00709 µM |
| C=CCOc1ccc(/C=C2\SC(N3CCCCC3)=NC2=O)cc1 | 0.0089 µM |
| COc1ccc(NC(=O)c2cc(S(=O)(=O)N(C)C)ccc2N2CCCC2)cc1Cl | > 19.5 µM (inactive) |
| CCOC(=O)c1c(C)nc2c(c1-c1cc(OC)c(OC)c(OC)c1)C(=O)c1ccccc1-2 | 0.514 µM |
| Cn1c(=O)[nH]c(=O)c2c1nc(N1CCN(Cc3ccccc3)CC1)n2CCCc1ccccc1 | 0.465 µM |
| CC(=O)N1CCc2c(sc(NC(=O)c3ccc4c(c3)OCCO4)c2C#N)C1 | 1.52 µM |
| CCn1c(=O)c2cc(C(=O)NCCCOC)sc2c2ccccc21 | 0.177 µM |
| CCc1ccc(N2C(=O)Nc3ccccc3C2(O)C(=O)N2CCN(c3ccccn3)CC2)cc1 (centres undefined) | 0.493 µM |
| NC(=O)c1cccc(-c2coc3c(C(=O)NCc4ccccc4)cccc23)c1 | 3.07 µM |
| O=S(=O)([N-]c1nc2ccccc2nc1-n1cc[n+](Cc2ccccc2)c1)c1ccc(Br)cc1 | 0.057 µM |
| CC(=O)Nc1ccc(-c2ccnc3c2CC(C(=O)NCc2cccc(Cl)c2)O3)cc1 (centres undefined) | 0.0576 µM |
| O=C(NCCCN1CCOCC1)c1cc(-c2ccccc2)on1 | 3.04 µM |
| Cc1cc(NCCN2CCOCC2)c2ccc3ccccc3c2n1 | 0.0178 µM |
| CC[C@H](C)C(=O)O[C@H]1CCC=C2C=C[C@H](C)[C@H](CC[C@@H]3C[C@@H](O)CC(=O)O3)[C@H]21 | 1.26 µM |
| CC(=O)c1sc(Nc2cccc3ccccc23)nc1C | 4.07 µM |
| COc1cccc(C(=O)Nc2ncc3c(n2)CC(c2ccc(OC)cc2OC)CC3=O)c1 (centres undefined) | 7.61 µM |
| COc1ccc(CC(=O)NCc2ccc(-n3cccc3)cc2)cc1OC | 1.61 µM |
| CCc1ccc(OCC(=O)Nc2ccc(-c3cc4ccccc4oc3=O)c(OC)c2)cc1 | 0.734 µM |
| Cc1ccc(S/C=C\C(=O)c2ccccc2)cc1 | 0.135 µM |
| CCOc1ccc2[nH]c(C(=O)N/N=C/c3cc(OC)c(OC)c(OC)c3)cc2c1 | 3.27 µM |
| O=C(N/N=C/c1ccc2c(c1)OCO2)C1COc2ccccc2O1 (centres undefined) | 0.187 µM |
| O=c1cc(N2CCN(c3ccccc3Cl)CC2)[nH]c(=O)n1Cc1ccc(F)cc1 | 3.26 µM |
| O=C(NCCc1ccccc1)c1cc(-c2ccco2)on1 | 1.01 µM |
| O=C(NC1CCCC(C(F)(F)F)C1)c1ccc([N+](=O)[O-])o1 (centres undefined) | 3.97 µM |
| O=C(CCN1C(=O)/C(=C/c2cccs2)SC1=S)N1CCCCC1 | 4.53 µM |
| COc1cc(NC(=O)c2ccccc2OCc2ccccc2)cc(OC)c1OC | 1.08 µM |

| Compound | AC35 |
| --- | --- |
| CC(NC(=O)c1ccc2ccccc2n1)c1ccc(S(N)(=O)=O)cc1 (centres undefined) | 0.977 µM |
| O=C(c1ccc(Cl)c(S(=O)(=O)N2CCCCC2)c1)N1CCN(Cc2ccccc2)CC1 | 1.92 µM |
| Cc1cccc([C@@H]2[C@@H]3C(=O)N(Cc4ccccc4)C(=O)[C@@H]3[C@]3(Cc4ccccc4)C(=O)N(c4cccc(F)c4)C(=O)N23)c1 | 4.36 µM |
| O=C(CCN1C(=O)/C(=C\c2ccccc2)SC1=S)N1CCCCC1 | 6.19 µM |
| COc1cccc(/C=N/NC(=O)c2ccc(N3CCCC3=O)cc2)c1 | 0.733 µM |
| Cc1cc(-c2nnc3n2N=C(c2ccc(-c4ccccc4)cc2)CS3)n[nH]1 | 1.26 µM |
| CCOC(=O)c1sc(Nc2nc(C)cc(C)n2)nc1C | 1.07 µM |
| Cc1nc2ncccn2c1-c1csc(Nc2ccc(N(C)C)cc2)n1 | 0.0289 µM |
| Cc1cccc2c(C(=O)N3CCN(c4ccccc4)CC3)cc(-c3ccncc3)nc12 | 0.126 µM |
| COc1cc(/C=N/n2cnc3scc(-c4cccs4)c3c2=O)cc(OC)c1OC | 0.177 µM |
| O=C1Cc2c([nH]c3ccc([N+](=O)[O-])cc23)-c2ccccc2N1 | 0.894 µM |
| COc1cccc(C(=O)Nc2sc3c(c2C#N)CCN(C(C)=O)C3)c1 | 0.0635 µM |
| CCOc1ccc(N2CCc3c(C)nc(SC)nc32)cc1 | 3.06 µM |
| COC(=O)/C=C1\C(=O)N(c2nc3ccccc3s2)C(=S)N1c1ccc(F)cc1 | 0.0149 µM |
| COc1ccc(CC(=O)N(Cc2ccccc2)c2ccc(C)cc2)cc1S(=O)(=O)N1CCOCC1 | 2.5 µM |
| COc1cccc(C2=NOC(C(=O)NCc3ccccc3)C2)c1 (centres undefined) | 0.102 µM |
| CCN(c1ccccc1)S(=O)(=O)c1ccc(N)c(OC)c1 | 1.82 µM |
| O=C1[C@H]2[C@@H](c3ccc(F)cc3)N3C(=O)N(c4cccc(Cl)c4)C(=O)[C@@]3(Cc3ccccc3)[C@H]2C(=O)N1C1CCCCC1 | 1.06 µM |
| Cc1ccc(/C=N/NC(=O)c2sccc2OCc2ccc(F)cc2)cc1 | 1.26 µM |
| CN(C)CCCN(C(=O)c1ccc(S(=O)(=O)N2CCc3ccccc3C2)cc1)c1nc2ccc(F)cc2s1 | 5.39 µM |
| Cc1ccc(C(=O)N/C(=C\c2cccs2)C(=O)NCCc2c[nH]c3ccccc23)cc1 | 1.09 µM |
| COc1ccc(NC(=O)C2Cc3c(-c4cccc(C(C)=O)c4)ccnc3O2)cc1 (centres undefined) | 0.0909 µM |
| CC[C@H](C)C(=O)O[C@H]1C[C@@H](C)C=C2C=C[C@H](C)[C@H](CC[C@@H]3C[C@@H](O)CC(=O)O3)[C@H]21 | 0.695 µM |
| Cc1ccc(NC(=O)c2ncn(CCCNCc3ccccc3)n2)cc1C | 0.994 µM |
| COc1ccc(Cl)cc1/C=C/c1ccc2cccc(O)c2n1 | 0.0221 µM |
| CC(=O)Nc1cc(-c2cccc(C(=O)N(C)C)c2)cn2c(-c3cccc(C(=O)N(C)C)c3)cnc12 | 1.74 µM |

| Compound | AC35 |
| --- | --- |
| COc1ccc2c(c1)[C@H]1[C@H](CO2)[C@H](c2ccccc2)[C@]2(C)C(=O)Nc3ccccc3C(=O)N12 | 0.353 µM |
| CC(=O)Nc1ccc2cc3ccc(NC(C)=O)cc3nc2c1 | 0.838 µM |
| Cc1cc2nnc(SCC(=O)NCc3ccco3)n2c2ccccc12 | 16.6 µM |
| Cc1cnc(NC(=O)C2CC(=O)N(c3cccc(Cl)c3)C2)s1 (centres undefined) | 1.6 µM |
| O=c1[nH]c(-c2ccccc2)nc2sc(-c3ccccc3)cc12 | 0.188 µM |
| COC(=O)c1ccc(C)c(NC(=O)CN(c2cc(OC)ccc2OC)S(C)(=O)=O)c1 | 0.226 µM |
| COc1ccc([C@@H]2[C@@H]3C(=O)N(C(C)(C)C)C(=O)[C@@H]3[C@]3(Cc4ccccc4)C(=O)N(c4cccc(Br)c4)C(=O)N23)cc1 | 0.762 µM |
| COc1ccccc1CCNCc1ccc(OC)c(OCc2ccccc2)c1 | 1.17 µM |
| COc1ccc(CCNC(=O)c2cc(-c3ccco3)on2)cc1OC | 15 µM |
| COc1ccc(Cl)cc1NC(=O)Nc1ccc(C(=O)N2CCCC2)cc1 | 2.95 µM |
| COc1cc(OC)c(N2CC(C(=O)Nc3cc(Cl)ccc3N3CCOCC3)CC2=O)cc1Cl (centres undefined) | 1.26 µM |
| Cc1cccc(N2C(=O)N3[C@H](c4ccc(F)cc4)[C@@H]4C(=O)N(C5CCCCC5)C(=O)[C@@H]4[C@]3(Cc3ccccc3)C2=O)c1 | 0.541 µM |
| COc1cc(N=Nc2cccc(S(N)(=O)=O)c2)c2ccccc2c1N | 1.66 µM |
| COc1ccccc1-c1csc(C(NC(C)=O)c2ccc(F)c(F)c2)n1 (centres undefined) | 0.42 µM |
| O=C(COc1ccccc1CNCc1ccccc1)Nc1ccccc1 | 0.89 µM |
| CC(C)Sc1ccccc1C(=O)Nc1ccc2c(c1)n(C)c(=O)n2C | 1.82 µM |
| COc1cccc(C(NC(C)=O)c2nc(-c3ccc(F)cc3OC)cs2)c1 (centres undefined) | 0.0633 µM |
| COc1ccc(CCn2c(=N)c(C(=O)NCC3CCCO3)cc3c(=O)n4cccc(C)c4nc32)cc1OC (centres undefined) | 0.154 µM |
| COc1cc(C(=O)N/N=C/c2ccc3c(c2)c2ccccc2n3C)ccc1O | 9.59 µM |
| CC(C)CCNC(=O)CCCOc1cc(=O)n(C)c2ccccc12 | 2.26 µM |
| Cn1c(SCC(=O)c2ccccc2)ncc(C(=O)Nc2ccccc2)c1=O | 0.382 µM |
| COC(=O)c1cc(=O)n(-c2ccc(F)cc2)c(=Nc2ccc(F)cc2)s1 | 0.0251 µM |
| Cn1c(=O)n(C)c2cc(C(=O)Nc3ccc4c(c3)OCO4)ccc21 | 1.87 µM |
| O=C(Nc1ccccc1O)c1ccc(NS(=O)(=O)c2cccc3cccnc23)cc1 | 4.41 µM |
| Cc1ccc2nc(/C(C#N)=C/c3cn[nH]c3-c3ccc(F)cc3)[nH]c2c1 | 2.18 µM |
| O=C(Nc1ccc(Cc2ccncc2)cc1)c1ccc([N+](=O)[O-])o1 | 2.68 µM |

Reference: PubChem BioAssay AID624404 (Broad Institute, 2012)
